The target of test [1] is T1, activated (phosphorylated) MAPK13 (Homo sapiens, UniProt O15264).
T1 sequence (O15264 1-365): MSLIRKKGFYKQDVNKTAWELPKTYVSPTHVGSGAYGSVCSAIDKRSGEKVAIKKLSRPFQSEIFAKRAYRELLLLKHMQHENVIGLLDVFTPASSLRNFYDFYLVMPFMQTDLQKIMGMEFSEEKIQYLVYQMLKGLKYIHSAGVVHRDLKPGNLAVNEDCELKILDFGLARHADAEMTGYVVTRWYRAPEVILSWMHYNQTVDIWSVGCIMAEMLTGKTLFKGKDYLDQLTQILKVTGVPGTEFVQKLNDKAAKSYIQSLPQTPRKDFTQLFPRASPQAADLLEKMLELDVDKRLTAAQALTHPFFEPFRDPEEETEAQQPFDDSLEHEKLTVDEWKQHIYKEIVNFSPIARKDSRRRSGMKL
Description: MAPK13 kinase inhibition assay. The conditions noted are these: for IC50 (MAPK13): steady-state enzyme inhibition, 3 μM ATP, stated as range in words; for fold less potent (IC50) than compounds 58 and 61: MAPK13 IC50 comparison. It is filed as biochemical.

Test [2] concerns the target T2, MAPK13 (unphosphorylated) (Homo sapiens, UniProt O15264).
T2 sequence (O15264 1-365): T1 sequence (O15264 1-365)
Description: Differential scanning fluorimetry. It is filed as binding. (In general: Differential scanning fluorimetry follows unfolding on heating by fluorescence.)

The next test addresses MAPK14 (Homo sapiens, UniProt Q16539). Description: Differential scanning fluorimetry. It is filed as binding.
For a further test, the system named is MAPK13. The conditions noted are these: read-out: IC50 [MAPK13]; cited from earlier work.

A word on the Kd: it is a measure of binding affinity in units of concentration. A high value points to lower affinity. As a reminder, the IC50 is the concentration needed to halve the response being measured.

MAPK14, sequence (Q16539 whole entry, species assumed): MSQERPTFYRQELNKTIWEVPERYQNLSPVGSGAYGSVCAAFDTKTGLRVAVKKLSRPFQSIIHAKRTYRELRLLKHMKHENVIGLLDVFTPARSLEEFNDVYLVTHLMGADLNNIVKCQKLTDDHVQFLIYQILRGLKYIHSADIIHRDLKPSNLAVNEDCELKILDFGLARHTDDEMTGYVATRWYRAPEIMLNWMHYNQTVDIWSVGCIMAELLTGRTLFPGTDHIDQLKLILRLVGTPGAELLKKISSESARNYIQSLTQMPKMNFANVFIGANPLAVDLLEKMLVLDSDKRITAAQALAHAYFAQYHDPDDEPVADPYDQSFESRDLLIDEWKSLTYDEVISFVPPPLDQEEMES

In the case of `Cn1nc(C(C)(C)C)cc1NC(=O)Nc1ccc(Sc2ccncc2)cc1` [Compound 58, 1-(3-tert-butyl-1-methyl-1H-pyrazol-5-yl)-3-[4-(pyridin-4-ylsulfanyl)phenyl]urea], in test [1], the “IC50 (MAPK13)” value is on record as “nanomolar range”. Also, the Kd in test [2] is 1900 ± 300 nM.

Turning to `Cc1cn(-c2cccc(C(=O)Nc3ccc(Oc4ccncc4)cc3)c2)cn1` [Compound 117, 3-(4-methyl-1H-imidazol-1-yl)-N-[4-(pyridin-4-xyloxy)phenyl] benzamide], in test [1], the “fold less potent (IC50) than compounds 58 and 61” value is “over 800 fold”; the “IC50 (MAPK13)” value is “micromolar range”.

On to `O=C(Nc1ccc(Oc2ccncc2)cc1)c1ccnc(N2CCOCC2)c1` [Compound 124], for which, at MAPK14, the “ATm-MAPK14 (°C)” value is −0.8± 0.3 °C. Further, the “fold less potent (IC50) than compounds 58 and 61” value in test [1] is “over 800 fold”.

Consider `Cc1ccc(-n2nc(C(C)(C)C)cc2NC(=O)Nc2ccc(OCCN3CCOCC3)c3ccccc23)cc1` [BIRB-796], for which, in the test on MAPK13, the half-maximal inhibitory concentration (IC50) was […].

The values are drawn from article PMC5011001 (Biochimica et biophysica acta, 2016).
